Here are results for 1 molecule from US9234002B2, “Small peptide specific for lung cancer and application thereof” (Guangzhou Peptide Medical Technology Co., Ltd., priority 2012, dated 2016).

Molecules are shown by their SMILES.

Series [1] deals with NCI-H1975 (adenocarcinoma) and L78 (squamous carcinoma). The series is described as follows: Median survival of lung cancer bearing nude mice after treatment. To be noted: tumor bearing nude mice, tail vein injection. Type of series: in vivo, human.
Protocol: Two human lung cancer cell lines comprising NCI-H1975 (adenocarcinoma) and L78 (squamous carcinoma) were maintained in RPMI 1640 (GIBCO, Mississauga, Canada) supplemented with 10% heat-inactivated calf serum (HyClone, Logan, Utah) and L-glutamine (Beyotime, Jiangsu, China) in an incubator at 37° C. with 5% CO2. Cells were harvested with trypsin/EDTA, washed with PAS twice and re-suspended in free serum culture medium at a concentration of 5×10^6 cells/mL. The suspended cells (0.2 mL) were inoculated s.c. into the back of nude mice to establish the lung cancer models, respectively. There are twelve nude mice in each group of cancer model. Tumor growth and general states such as mental, diet and weight were monitored periodically. When tumors reached approximately 1 cm in mean diameter, the tumor bearing mice were used in therapeutic efficacy studies.
The tumor size was measured two dimensionally on days 3, 6, 9, 12, 15, 18, 21, 24, 27 and 30 after injection, while mice weight was also determined. The tumor volume was calculated by the formula volume V=(4/3)×π×R1×R2, where R1 is radius 1 and R2 is radius 2 and R1<R2. Growth curves of the tumors were constructed according to these tumor volumes.
Series [2] in a line: Toxicity of radiotherapeutic agent in mice bearing lung cancer cells (hematology, serum biochemistry, histopathology). Type of series: in vivo. The protocol:
After treatment with radiotherapeutic agent for three weeks, the mice were sacrificed and the major tissues or organs such as blood, liver, kidneys, heart, lungs and spleen were removed completely. A routine blood test was performed using an automatic hematology analyzer to measure the following parameters: white blood cell (WBC), red blood cell (RBC) and platelet (PLT) count. Clinical biochemicals parameters measured with an automated biochemical analyzer were aspartate transferase (AST), alanine transferase (ALT), blood urea nitrogen (BUN) and creatinine (CRE). Histopathological and ultrastructural observations were performed on the preserved organs and tissues stated above.

The mark [3] stands for this setting: mice bearing lung cancer (24 h).

As for `[131I-].[Na+]` [^131I, iodine-131], in series [1], the median survival time worked out at 42 days. In addition, in series [2] (setting [3]), the ALT was 60.7 ± 7.8 U/L, the AST worked out at 171.7 ± 0.8 U/L, the BUN is 9.4 ± 1.3 mmol/L and the CRE was 42.7 ± 3.8 µmol/L. In series [2] (setting [3]), the PLT is given as 991.2 ± 52.5 G/L, the RBC was 7.8 ± 0.2 T/L and the WBC stood at 13.6 ± 0.7 G/L. In addition, the “leukocyte count versus control” value in series [2] (mice bearing lung cancer cells) is “decrease”.
